# Experimental data taken from ChEMBL document CHEMBL5360629, “AI-Powered Virtual Screening of Large Compound Libraries Leads to the Discovery of Novel Inhibitors of Sirtuin-1” (J Med Chem, 2023).
# Activity calls are given as the source filed them. The rule behind the calls is not given here.
# Legend:
# [1] = target: T1, NAD-dependent protein deacetylase sirtuin-1 (Homo sapiens) (UniProt Q96EB6); conditions: dose 20.0 µM
# T1 sequence (whole entry): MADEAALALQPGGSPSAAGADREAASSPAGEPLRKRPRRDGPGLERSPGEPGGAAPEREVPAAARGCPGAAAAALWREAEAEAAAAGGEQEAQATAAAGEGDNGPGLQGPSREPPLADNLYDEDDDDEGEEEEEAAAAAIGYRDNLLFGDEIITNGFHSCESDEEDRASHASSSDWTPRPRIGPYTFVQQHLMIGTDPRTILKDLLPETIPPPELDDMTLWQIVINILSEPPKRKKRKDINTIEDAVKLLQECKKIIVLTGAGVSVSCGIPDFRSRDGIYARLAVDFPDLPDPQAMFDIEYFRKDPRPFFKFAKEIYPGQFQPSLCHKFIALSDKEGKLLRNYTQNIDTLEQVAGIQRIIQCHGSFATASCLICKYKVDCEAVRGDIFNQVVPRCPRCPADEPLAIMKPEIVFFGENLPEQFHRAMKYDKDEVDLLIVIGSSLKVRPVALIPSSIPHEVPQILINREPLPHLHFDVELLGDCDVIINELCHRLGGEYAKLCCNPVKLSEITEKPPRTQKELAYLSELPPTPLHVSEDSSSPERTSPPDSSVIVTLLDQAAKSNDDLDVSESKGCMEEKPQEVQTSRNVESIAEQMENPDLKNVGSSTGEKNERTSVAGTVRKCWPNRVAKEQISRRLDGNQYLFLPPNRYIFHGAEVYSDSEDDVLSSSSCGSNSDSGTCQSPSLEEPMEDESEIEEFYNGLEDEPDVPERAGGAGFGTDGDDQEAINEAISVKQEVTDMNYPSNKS
# Description: Binding affinity to human recombinant truncated Sirtuin-1 expressed in Escherichia coli assessed as change in melting temperature at 20 uM by SYPRO orange dye based thermal shift assay
# [2] = target: Carbonic anhydrase (Homo sapiens) (UniProt P00918+P43166+P00915+P07451+P23280+O43570+Q9ULX7+Q16790+P22748+Q8N1Q1+Q9Y2D0+P35218); experiment: Binding affinity to carbonic anhydrase (unknown origin) assessed as change in melting temperature incubated for 15 mins by Sypro orange staining based thermal scanning analysis; type: protein assay; conditions: dose 0.01-1000 µM
# [3] = target: T2, NAD-dependent protein deacetylase sirtuin-1 (Homo sapiens, UniProt Q96EB6); experiment: Inhibition of Sirtuin-1 (unknown origin) incubated for 30 mins by luminogenic SIRT-Glo assay
# T2 sequence (Q96EB6 whole entry): T1 sequence (whole entry)
SMILES,ΔTm [1] [°C],Activity [2],IC50 [3] [µM]
O=C(CCc1c[nH]c2ccccc12)NNC(=O)CCc1c[nH]c2ccccc12,2.8,–,–
NC(=O)c1ccc(N2CCN(C(c3ccccc3)c3ccccc3)CC2)c([N+](=O)[O-])c1,1,–,–
O=S(=O)(NCCc1c[nH]c2ccccc12)c1cc(Cl)cc(Cl)c1,1,–,–
O=C(Nc1ccccc1)Nc1ccc(NC(=O)c2ccc(Br)cc2)cc1,2.1,–,–
COc1ccc(N2CCN(c3nc(-c4ccccc4)nc4ccccc34)CC2)cc1,1.6,inactive,40
O=C(NCCc1c[nH]c2ccccc12)c1ccccc1O,1.8,Dose-Dependent Effect,3.4
O=C(CCc1ccccc1O)NCCc1c[nH]c2ccccc12,12.9,–,–
